Results from US6716859B2, “Substituted N′-(Arylcarbonyl)-benzhydrazides, N′(Arylcarbonyl)-benzylidene-hydrazides and analogs as activators of caspases and inducers of apoptosis and the use thereof” (Cytovia, Inc., priority 2001, dated 2004).
pEC50, pIC50: −log10 of the molar value.

Columns and labels:
ZR-75-1 [1] = assay: Caspase cascade activation assay (fluorogenic DEVD substrate); format: cell-based, Human; conditions: 48 h; for Caspase activity Ratio: ratio of net RFU of test compound to control
Protocol: (§1) Human breast cancer cell lines T-47D and ZR-75-1 were grown according to media component mixtures designated by American Type Culture Collection+10% FCS (Invitrogen Corporation), in a 5% CO2-95% humidity incubator at 37° C. T-47D and ZR-75-1 cells were maintained at a cell density between 50 and 80% confluency at a cell density of 0.1 to 0.6×10^6 cells/ml. Cells were harvested at 600×g and resuspended at 0.65×10^6 cells/ml into appropriate media+10% FCS. An aliquot of […] of cells was added to a well of a 96-well microtiter plate containing 2.5 μl of a 10% DMSO in RPMI-1640 media solution containing 0.16 to 100 μM of N′-(2-phenoxypyridine-3-carbonyl)-3-(trifluoromethyl)benzhydrazide (Example 1) or other test compound (0.016 to 10 μM final). An aliquot of 22.5 μl of cells was added to a well of a 384-well microtiter plate containing 2.5 μl of a 10% DMSO in RPMI-1640 media solution without test compound as the control sample. The samples were mixed by agitation and then incubated at 37° C. for 48 h in a 5% CO2-95% humidity incubator. After incubation, the samples were removed from the incubator and 25 μl of a solution containing 14 μM of N-(Ac-DEVD)-N′-ethoxycarbonyl-R110 (SEQ ID No:1) fluorogenic substrate (Cytovia, Inc.; WO99/18856), 20% sucrose (Sigma), 20 mM DTT (Sigma), 200 mM NaCl (Sigma), 40 mM Na PIPES buffer pH 7.2 (Sigma), and 500 μg/ml lysolecithin (Calbiochem) was added. The samples were mixed by agitation and incubated at room temperature. Using a fluorescent plate reader (Model SpectraMax Gemini, Molecular Devices), an initial reading (T=0) was made approximately 1-2 min after addition of the substrate solution, employing excitation at 485 nm and emission at 530 nm, to determine the background fluorescence of the control sample. After the 3 h incubation, the samples were read for fluorescence as above (T=3 h).
(§2) The Relative Fluorescence Unit values (RFU) were used to calculate the sample readings as follows:
(§3) RFU(T=3 h)−Control RFU(T=0)=Net RFU(T=3 h)
(§4) The activity of caspase cascade activation was determined by the ratio of the net RFU value for N′-(2-phenoxypyridine-3-carbonyl)-3-(trifluoromethyl)benzhydrazide (Example 1) or other test compound to that of control samples. The EC50 (nM) was determined by a sigmoidal dose-response calculation (Prism 2.0, GraphPad Software Inc.).

T-47D [2] = assay: as above; format: cell-based, Human; conditions: 48 h; for Caspase activity Ratio: ratio of net RFU of test compound to control; for pEC50: Homo sapiens, T47D, read-out: Caspase potency EC50
Protocol: as §1, §2, §3, §4

T-47D cells = assay: Cell cycle arrest by propidium iodide flow cytometry; format: cell-based, Human; conditions: 1 μM, 24 h
Protocol: T-47D, a breast cancer cell line, was maintained and harvested as described in Example 43. 5×10^5 Cells were treated with 1 μM of N′-(2-phenoxypyridine-3-carbonyl)-3-(trifluoromethyl)benzhydrazide for 24 h at 37° C. As a control, cells were also incubated with equivalent amount of solvent (DMSO). Cells were harvested at 1,200 rpm and then transferred to 12×75 mm polystyrene tubes. Cells were then resuspended in 500 μl of 1% Na Citrate, 0.1% Triton X-100, and 50 μg/ml of propidium iodide and incubated at room temperature for 30 min followed by flow cytometer analysis. All flow cytometry analyses were performed on FACScalibur (Becton Dickinson) using Cell Quest analysis software. The x-axis plotted the amount of fluorescence and the y-axis is plotted the number of cells with the indicated fluorescence. The T-47D control cell population profile is seen in FIG. 1A and the increase in G2/M (M4) DNA content cells that were treated with N′-(2-phenoxypyridine-3-carbonyl)-3-(trifluoromethyl)benzhydrazide is seen in FIG. 1B.

MCF-7 = assay: Cell proliferation assay (GI50); format: cell-based; conditions: Homo sapiens, MCF7
Protocol: (§5) T-47D and ZR-75-1 cells were grown and harvested as in Example 43. An aliquot of 90 μl of cells (2.2×10^4 cells/ml) was added to a well of a 96-well microtiter plate containing 10 μl of a 10% DMSO in RPMI-1640 media solution containing 1 nM to 100 μM of N′-(2-phenoxypyridine-3-carbonyl)-3-(trifluoromethyl)benzhydrazide (0.1 nM to 10 μM final). An aliquot of 90 μl of cells was added to a well of a 96-well microtiter plate containing 10 μl of a 10% DMSO in RPMI-1640 media solution without compound as the control sample for maximal cell proliferation (AMax). The samples were mixed by agitation and then incubated at 37° C. for 48 h in a 5% CO2-95% humidity incubator. After incubation, the samples were removed from the incubator and 20 μl of CellTiter 96 AQUEOUS One Solution Cell Proliferation™ reagent (Promega) was added. The samples were mixed by agitation and incubated at 37° C. for 2-4 h in a 5% CO2-95% humidity incubator. Using an absorbance plate reader (Model 1420 Wallac Instruments), an initial reading (T=0) was made approximately 1-2 min after addition of the solution, employing absorbance at 490 nm. This determines the possible background absorbance of the test compounds. No absorbance for N′-(2-phenoxypyridine-3-carbonyl)-3-(trifluoromethyl)benzhydrazide was found at 490 nm. After the 2-4 h incubation, the samples were read for absorbance as above (ATest).
(§6) Baseline for GI50 (dose for 50% inhibition of cell proliferation) of initial cell numbers were determined by adding an aliquot of 90 μl of cells or 90 μl of media, respectively, to wells of a 96-well microtiter plate containing 10 μl of a 10% DMSO in RPMI-1640 media solution. The samples were mixed by agitation and then incubated at 37° C. for 0.5 h in a 5% CO2-95% humidity incubator. After incubation, the samples were removed from the incubator and 20 μl of CellTiter 96 AQUEOUS One Solution Cell Proliferation™ reagent (Promega) was added. The samples were mixed by agitation and incubated at 37° C. for 2-4 h in a 5% CO2-95% humidity incubator. Absorbance was read as above, (AStart) defining absorbance for initial cell number used as baseline in GI50 determinations.
(§7) GI50 (dose for 50% inhibition of cell proliferation) is the concentration where [(ATest−AStart)/(AMax−AStart)]=0.5
(§8) T-47D, ZR-75-l, MX-1, SK-Br-3, MCF-7, Panc-1, K562 and PC-3 cells were grown according to the conditions recommended by American Type Culture Collection. SW620 and NCI-H23 were grown according to the conditions provided by National Cancer Institute. The cell proliferation assay and the calculations of GI50 were performed as in Example 21 (Tables III and IV).

PC-3 = assay: Cell proliferation assay (GI50); format: cell-based; conditions: Homo sapiens
Protocol: as §5, §6, §7, §8

NCI-H23 = assay: Cell proliferation assay (GI50); format: cell-based; conditions: Homo sapiens
Protocol: as §5, §6, §7, §8

SK-Br-3 = assay: Cell proliferation assay (GI50); format: cell-based; conditions: Homo sapiens
Protocol: as §5, §6, §7, §8

ZR-75-1 [3] = assay: Cell proliferation assay (GI50); format: cell-based; conditions: Homo sapiens, 48 h
Protocol: as §5, §6, §7, §8

SW-620 = assay: Cell proliferation assay (GI50); format: cell-based; conditions: Homo sapiens
Protocol: as §5, §6, §7, §8

K562 = assay: Cell proliferation assay (GI50); format: cell-based; conditions: Homo sapiens
Protocol: as §5, §6, §7, §8

MX-1 = assay: Cell proliferation assay (GI50); format: cell-based; conditions: Homo sapiens, MX1
Protocol: as §5, §6, §7, §8

Panc-1 = assay: Cell proliferation assay (GI50); format: cell-based; conditions: Homo sapiens
Protocol: as §5, §6, §7, §8

T-47D [4] = assay: Cell proliferation assay (GI50); format: cell-based, Human; conditions: 48 h
Protocol: as §5, §6, §7, §8

[5] = test system: breast and non-breast cancer cells; assay: Cell proliferation assay, breast versus non-breast cancer cell lines; format: cell-based; conditions: conclusion from Tables III and IV
Protocol: as §5
as §6, with “Absorbance was read as above, (AStart) defining absorbance for initial cell number used as baseline in GI50 determinations.” left out

T47D cells = assay: Clonogenic survival assay; format: cell-based; conditions: Homo sapiens, 48 h treatment, read-out: IC50 of inhibition of clonogenic survival
Protocol: (§9) T47D and MX-1 cells were grown according to the conditions recommended by American Type Culture Collection. In a well of a 96 well plate, 30,000 cells were seeded and treated with compound at the indicated concentrations for 48 hr in a 5% CO2-95% humidity incubator at 37° C. Control wells were treated with the same amount of solvent (DMSO) as the compound samples. After the indicated treatment time, the supernatant was removed to a sterile culture tube and the wells washed with phosphate buffered saline, and the adherent cells trypsinized for 5 min. The trypsinzed cells were added to the culture supernatant, cells were collected (1,200 rpm, 10 min), washed with phosphate buffered saline, and resupended in fresh media. The cells were counted for trypan blue negative cells, and the cells diluted with fresh media to 1,000 cells/ml. To a well of a 24-well plate, 0.1 ml of the cell suspension was added along with 1 ml of fresh media (cell suspensions were passed through a 22 G needle several times just before plating to form single cell suspensions). Plates are incubated in a 5% CO2-95% humidity incubator at 37° C. for 7-10 days. Colonies are counted when the sizes reached greater than 50 cells per colony. […] Colonies are rinsed with water and the colonies counted and the fraction surviving expressed as the percentage of the number of control colonies.

MX-1 cells = assay: Clonogenic survival assay; format: cell-based; conditions: Homo sapiens, MX1, 48 h treatment, read-out: IC50 of inhibition of clonogenic survival
Protocol: as §9

Row | Compound | Caspase potency EC50 (ZR-75-1 [1]) | Caspase activity Ratio (ZR-75-1 [1]) | Caspase activity Ratio (T-47D [2]) | pEC50 (T-47D [2]) | G2/M (M4) DNA content cells (T-47D cells) | GI50 (MCF-7) [µM] | GI50 (PC-3) [µM] | GI50 (NCI-H23) [µM] | GI50 (SK-Br-3) [µM] | GI50 (ZR-75-1 [3]) [µM] | GI50 (SW-620) [µM] | GI50 (K562) [µM] | GI50 (MX-1) [µM] | GI50 (Panc-1) [µM] | GI50 (T-47D [4]; Homo sapiens, T47D) [µM] | Selectivity of growth inhibition for breast cancer cells [5] | pIC50 (T47D cells) | pIC50 (MX-1 cells) | GI50 (T-47D [4]) [µM] | pEC50 (ZR-75-1 [1]; Homo sapiens, read-out: Caspase potency EC50)
1 | O=C(NNC(=O)c1cccnc1Oc1ccccc1)c1cccc(C(F)(F)F)c1 [Example 1, N′-(2-Phenoxypyridine-3-carbonyl)-3-(trifluoromethyl)benzhydrazide] | INACTIVE | 1.8 | 11.6 | 6.33 | increase | 0.4 | > 10 | > 10 | 0.04 | 4.5 | > 10 | > 10 | 0.4 | > 10 | 0.2 | selectively inhibits the growth of breast cancer cells | ~5.98 | ~6.22 | – | –
2 | O=C(NN=Cc1cccc(C(F)(F)F)c1)c1cccnc1Oc1ccccc1 [Example 15, 2-Phenoxypyridine-3-carboxylic acid (3-trifluoromethylbenzylidene)-hydrazide] | – | – | – | – | – | 0.25 | – | > 10 | 0.02 | 2 | > 10 | – | 0.4 | – | 0.06 | selectively inhibits the growth of breast cancer cells | – | – | 0.08 | –
3 | O=C(NNC(=O)c1cccnc1Oc1ccccc1)c1ccccc1O [Example 8, N′-(2-Phenoxypyridine-3-carbonyl)-2-hydroxybenzhydrazide] | – | 5.6 | 7.3 | 6.13 | – | 0.8 | – | 1 | 0.3 | 0.3 | 1 | 0.45 | 1 | – | 1 | inhibiting the growth of both breast and non-breast cancer cells | – | – | 0.6 | 6.14
